{
  "source": "patent US9765074B2",
  "about": "“Inhibitors of the renal outer medullary potassium channel” (Merck Sharp & Dohme Corp., priority 2013, dated 2017)",
  "data": [
    {"molecular_target": "T1, hROMK (hKir1.1) (Homo sapiens, UniProt P48048)", "T1 construct": "expressed in transfected cells", "T1 sequence (P48048 1-391)": "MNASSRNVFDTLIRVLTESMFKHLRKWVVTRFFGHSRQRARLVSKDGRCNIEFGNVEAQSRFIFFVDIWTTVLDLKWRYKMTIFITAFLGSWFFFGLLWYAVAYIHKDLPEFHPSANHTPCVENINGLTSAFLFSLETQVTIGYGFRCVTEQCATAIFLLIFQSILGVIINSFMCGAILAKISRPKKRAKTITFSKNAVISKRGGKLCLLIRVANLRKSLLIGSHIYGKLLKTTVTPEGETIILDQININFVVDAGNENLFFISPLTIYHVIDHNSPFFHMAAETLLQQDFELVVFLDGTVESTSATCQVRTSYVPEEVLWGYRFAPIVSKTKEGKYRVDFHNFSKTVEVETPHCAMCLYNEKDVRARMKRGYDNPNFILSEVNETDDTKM", "experiment": "Thallium Flux Assay (ROMK channel functional thallium flux, FLIPR-Tetra)", "assay_type": "cell-based", "conditions": "HEK293 cells stably expressing hROMK (hKir1.1); 30 min compound incubation", "experimental": "The following Thallium Flux Assay was performed on each of the final product compounds in the Examples.\nCell Culture Conditions—HEK293 cells stably expressing hROMK (hKir1.1) were grown at 37° C. in a 10% CO2 humidified incubator in complete growth media: Dulbecco's Modified Eagle Medium supplemented with non-essential amino acids, Penicillin/Streptomycin/Glutamine, G418 and FBS. At >80% confluency, aspirate the media from the flask and rinse with 10 mL Calcium/Magnesium-free PBS. Add 5 mL of 1× trypsin (prepared in Ca/Mg Free PBS) to T-225 flask and return flask to 37° C./CO2 incubator for 2-3 minutes. To dislodge the cell, gently bang the side of the flask with your hand. Triturate the cells completely and then transfer the cells to 25 mL complete media. Centrifuge at 1,500 rpm for 6 min followed by resuspension in complete growth media and determine cell concentration. For typical re-seeding, 4E6 cells/T-225 flask will attain >80% confluency in 4 days. Under ideal growth conditions and appropriate tissue culture practices, this cell line is stable for 40-45 passages. FluxOR Kit Components (Invitrogen F10017) • FluxOR™ Reagent (Component A) • FluxOR™ Assay Buffer (Component B)—10× Concentrate • PowerLoad™ Concentrate (Component C)—100× Concentrate • Probenecid (Component D)—Lyophilized sample is kept at −20° C. Water soluble, 100× after solubilization in 1 mL water. Store at 4° C. • FluxOR™ Chloride-free Buffer (Component E)—5× Concentrate • Potassium sulfate (K2SO4) Concentrate (Component F)—125 mM in water. Store at 4° C. • Thallium sulfate (Tl2SO4) Concentrate (Component G)—50 mM in water. Store at 4° C. • DMSO (dimethyl sulfoxide, Component H)—1 mL (100%) Reagent Preparation: FluxOR Working Solutions • 1000× FluxOR™ Reagent: Reconstitute a vial of component A in 100 μl DMSO; Mix well; Store 10 μl aliquots at −20° C. • 1× FluxOR™ Assay Buffer: Dilute Component B 10-fold with water; Adjust pH to 7.4 with Hepes/NaOH; Filter and store at 4° C. • Probenecid/Assay Buffer: 100 mL of 1× FluxOR™ Assay Buffer; 1 mL of reconstituted component D; Store at 4° C. • Loading Buffer (per microplate): 10 μl 1000× FluxOR™ Reagent; 100 μl component C; 10 mL Probenecid/Assay Buffer • Compound Buffer (per microplate): 20 mL Probenecid/Assay Buffer; 0.3 mM ouabain (10 mM ouabain in water can be stored in amber bottle/aluminum foil at room temperature); Test compound • 1× FluxOR™ Chloride-Free Buffer: Prepare 1× working solution in water. Can be stored at room temperature • Stimulant Buffer (prepared at 5× final concentration in 1× FluxOR™ Chloride-Free Buffer): 7.5 mM Thallium sulfate and 0.75 mM Potassium sulfate (to give a final assay concentration of 3 mM Thallium/0.3 mM Potassium). Store at 4° C. when not in use. If kept sterile, this solution is good for months. Assay Protocol—The ROMK channel functional thallium flux assay is performed in 384 wells, using the FLIPR-Tetra instrument. HEK-hKir1.1 cells are seeded in Poly-D-Lysine microplates and kept in a 37° C.-10% CO2 incubator overnight. On the day of the experiment, the growth media is replaced with the FluxOR™ reagent loading buffer and incubated, protected from light, at ambient temperature (23-25° C.) for 90 min. The loading buffer is replaced with assay buffer±test compound followed by 30 min incubation at ambient temperature, where the Thallium/Potassium stimulant is added to the microplate. Step Protocol • 1. Seed HEK-hKir1.1 cells (50 μl at 20,000 cells/well) in 384-well PDL coated Microplates • 2. Allow cells to adhere overnight in humidified 37° C./10% CO2 incubator • 3. Completely remove cell growth media from microplate and replace with 25 μl loading buffer • 4. Incubate Microplate at room temperature, protected form light, for 90 min • 5. Remove loading buffer and replace with 25 μl 1× Assay Buffer±test compound. • 6. Incubate microplate at room temperature, protected from light, for 30 min • 7. At FLIPR-Tetra 384: Add stimulant (Thallium/Potassium) solution to microplate and monitor fluorescence. […]", "units": {"IC50": "nM"}, "values": [
      {"smiles": "CC1=C(N2C(=O)C3(CCN(C[C@H](O)c4ccc(-n5cnnn5)nc4C)CC3)CC2C)COC1=O", "note": "(mixture of isomers) [Example 56, 8-{(2R)-2-hydroxy-2-[2-methyl-6-(1H-tetrazol-1-yl)pyridin-3-yl]ethyl}-3-methyl-2-(4-methyl-5-oxo-2,5-dihydrofuran-3-yl)-1-oxo-2-aza-8-azoniaspiro[4.5]decane]", "IC50": 20},
      {"smiles": "CC1=C(N2C(=O)C3(CCN(C[C@H](O)c4ccc(-n5cnnn5)nc4C)CC3)CC2C)COC1=O", "note": "(mixture of isomers) [Example 57, 8-{(2R)-2-hydroxy-2-[2-methyl-6-(1H-tetrazol-1-yl)pyridin-3-yl]ethyl}-3-methyl-2-(4-methyl-5-oxo-2,5-dihydrofuran-3-yl)-1-oxo-2-aza-8-azoniaspiro[4.5]decane]", "IC50": 20},
      {"smiles": "CC1=C(N2C(=O)C3(CCN(C[C@@H](O)c4ccc(-n5cnnn5)nc4C)CC3)CC2C)COC1=O", "note": "(mixture of isomers) [Example 58, 8-{(2S)-2-hydroxy-2-[2-methyl-6-(1H-tetrazol-1-yl)pyridin-3-yl]ethyl}-3-methyl-2-(4-methyl-5-oxo-2,5-dihydrofuran-3-yl)-1-oxo-2-aza-8-azoniaspiro[4.5]decane]", "IC50": 60},
      {"smiles": "CC1=C(N2C(=O)C3(CCN(C[C@@H](O)c4ccc(-n5cnnn5)nc4C)CC3)CC2C)COC1=O", "note": "(mixture of isomers) [Example 59, 8-{(2S)-2-hydroxy-2-[2-methyl-6-(1H-tetrazol-1-yl)pyridin-3-yl]ethyl}-3-methyl-2-(4-methyl-5-oxo-2,5-dihydrofuran-3-yl)-1-oxo-2-aza-8-azoniaspiro[4.5]decane]", "IC50": 50},
      {"smiles": "Cc1nc(-n2cnnn2)cnc1C(O)CN1CCC2(CC1)C[C@H](C)N(C1=CC(=O)OC1)C2=O", "note": "(mixture of isomers) [Example 165, (3S)-8-{2-hydroxy-2-[3-methyl-5-(1H-tetrazol-1-yl)pyrazin-2-yl]ethyl}-3-methyl-2-(5-oxo-2,5-dihydrofuran-3-yl)-2,8-diazaspiro[4.5]decan-1-one]", "IC50": 10},
      {"smiles": "Cc1nc(-n2cnnn2)cnc1C(O)CN1CCC2(CC1)C[C@H](C)N(C1=CC(=O)OC1)C2=O", "note": "(mixture of isomers) [Example 168, (3S)-8-{2-hydroxy-2-[3-methyl-5-(1H-tetrazol-1-yl)pyrazin-2-yl]ethyl}-3-methyl-2-(5-oxo-2,5-dihydrofuran-3-yl)-2,8-diazaspiro[4.5]decan-1-one]", "IC50": 10},
      {"smiles": "Cc1nc(-n2cnnn2)cnc1C(O)CN1CCC2(CC1)C[C@H](C)N(C1=CC(=O)OC1)C2=O", "note": "(mixture of isomers) [Example 169, (3S)-8-{2-hydroxy-2-[3-methyl-5-(1H-tetrazol-1-yl)pyrazin-2-yl]ethyl}-3-methyl-2-(5-oxo-2,5-dihydrofuran-3-yl)-2,8-diazaspiro[4.5]decan-1-one]", "IC50": 10},
      {"smiles": "COC1CN(C2=CC(=O)OC2)C(=O)C12CCN(C[C@H](O)c1ccc(-n3cnnn3)nc1)CC2", "note": "(mixture of isomers) [Example 206, 8-((R)-2-(6-(1H-tetrazol-1-yl)pyridin-3-yl)-2-hydroxyethyl)-4-methoxy-2-(5-oxo-2,5-dihydrofuran-3-yl)-2,8-diazaspiro[4.5]decan-1-one]", "IC50": 50},
      {"smiles": "COC1CN(C2=CC(=O)OC2)C(=O)C12CCN(C[C@H](O)c1ccc(-n3cnnn3)nc1)CC2", "note": "(mixture of isomers) [Example 207, 8-((R)-2-(6-(1H-tetrazol-1-yl)pyridin-3-yl)-2-hydroxyethyl)-4-methoxy-2-(5-oxo-2,5-dihydrofuran-3-yl)-2,8-diazaspiro[4.5]decan-1-one]", "IC50": 40},
      {"smiles": "O=C1C=C(N2C(=O)C3(CCN(C[C@H](O)c4ccc(-n5cnnn5)nn4)CC3)CC2C2CC2)CO1", "note": "(mixture of isomers) [Example 210, 3-cyclopropyl-8-{(2S)-2-hydroxy-2-[6-(1H-tetrazol-1-yl)pyridazin-3-yl]ethyl}-2-(5-oxo-2,5-dihydrofuran-3-yl)-2,8-diazaspiro[4.5]decan-1-one]", "IC50": 70},
      {"smiles": "O=C1C=C(N2C(=O)C3(CCN(C[C@H](O)c4ccc(-n5cnnn5)nn4)CC3)CC2C2CC2)CO1", "note": "(mixture of isomers) [Example 211, 3-cyclopropyl-8-{(2S)-2-hydroxy-2-[6-(1H-tetrazol-1-yl)pyridazin-3-yl]ethyl}-2-(5-oxo-2,5-dihydrofuran-3-yl)-2,8-diazaspiro[4.5]decan-1-one]", "IC50": 40},
      {"smiles": "O=C1C=C(N2C(=O)C3(CCN(C[C@H](O)c4cnc(-n5cnnn5)cn4)CC3)CC2C2CC2)CO1", "note": "(mixture of isomers) [Example 212, 3-cyclopropyl-8-{(2S)-2-hydroxy-2-[5-(1H-tetrazol-1-yl)pyrazin-2-yl]ethyl}-2-(5-oxo-2,5-dihydrofuran-3-yl)-2,8-diazaspiro[4.5]decan-1-one]", "IC50": 120},
      {"smiles": "O=C1C=C(N2C(=O)C3(CCN(C[C@H](O)c4cnc(-n5cnnn5)cn4)CC3)CC2C2CC2)CO1", "note": "(mixture of isomers) [Example 213, 3-cyclopropyl-8-{(2S)-2-hydroxy-2-[5-(1H-tetrazol-1-yl)pyrazin-2-yl]ethyl}-2-(5-oxo-2,5-dihydrofuran-3-yl)-2,8-diazaspiro[4.5]decan-1-one]", "IC50": 40},
      {"smiles": "O=C1C=C(N2C(=O)C3(CCN(C[C@H](O)c4ccc(-n5cnnn5)nc4)CC3)CC2C2CC2)CO1", "note": "(mixture of isomers) [Example 214, 3-cyclopropyl-8-{(2R)-2-hydroxy-2-[6-(1H-tetrazol-1-yl)pyridin-3-yl]ethyl}-2-(5-oxo-2,5-dihydrofuran-3-yl)-2,8-diazaspiro[4.5]decan-1-one]", "IC50": 30},
      {"smiles": "O=C1C=C(N2C(=O)C3(CCN(C[C@H](O)c4ccc(-n5cnnn5)nc4)CC3)CC2C2CC2)CO1", "note": "(mixture of isomers) [Example 215, 3-cyclopropyl-8-{(2R)-2-hydroxy-2-[6-(1H-tetrazol-1-yl)pyridin-3-yl]ethyl}-2-(5-oxo-2,5-dihydrofuran-3-yl)-2,8-diazaspiro[4.5]decan-1-one]", "IC50": 30},
      {"smiles": "CCC1CC2(CCN(C[C@H](O)c3ccc(-n4cnnn4)nc3)CC2)C(=O)N1C1=CC(=O)OC1", "note": "(mixture of isomers) [Example 218, 3-ethyl-8-{(2R)-2-hydroxy-2-[6-(1H-tetrazol-1-yl)pyridin-3-yl]ethyl}-2-(5-oxo-2,5-dihydrofuran-3-yl)-2,8-diazaspiro[4.5]decan-1-one]", "IC50": 10},
      {"smiles": "CCC1CC2(CCN(C[C@H](O)c3ccc(-n4cnnn4)nc3)CC2)C(=O)N1C1=CC(=O)OC1", "note": "(mixture of isomers) [Example 219, 3-ethyl-8-{(2R)-2-hydroxy-2-[6-(1H-tetrazol-1-yl)pyridin-3-yl]ethyl}-2-(5-oxo-2,5-dihydrofuran-3-yl)-2,8-diazaspiro[4.5]decan-1-one]", "IC50": 10},
      {"smiles": "CCC1CC2(CCN(C[C@H](O)c3cnc(-n4cnnn4)cn3)CC2)C(=O)N1C1=CC(=O)OC1", "note": "(mixture of isomers) [Example 220, 3-ethyl-8-{(2S)-2-hydroxy-2-[5-(1H-tetrazol-1-yl)pyrazin-2-yl]ethyl}-2-(5-oxo-2,5-dihydrofuran-3-yl)-2,8-diazaspiro[4.5]decan-1-one]", "IC50": 40}
    ]}
  ]
}
